Measured values: patent publication EP1190034B1, “BLEACH ACTIVATOR BASED ON INULIN” (Coöperatie Cosun U.A., priority 1999, dated 2001)

What was measured:
[1] = Solubility in water; format: physicochemical
[2] = Bleach activator test procedure (peracetic acid liberated, iodometric titration); settings: hydrogen peroxide, 30 °C, pH 11.6, 4 minutes, correction factor 1.10
Experimental: The bleach activator property is determined on the basis of the quantity of peracetic acid that can be liberated from the product. […] The best characteristics are found when the acylation is carried out in water at controlled pH (Table 1).
Mix the following solutions: • 15 ml 0.6% hydrogen peroxide solution • 10 ml saturated sodium pyrophosphate solution • 10 ml 0.05% EDTA solution. • Make up to 100 ml with demineralised water and heat to 30 °C. • Add the heated mixture to an accurately weighed amount (75 - 90 mg) of bleach activator in a 600 ml glass beaker. • Adjust the pH to 11.6 with 0.1 M NaOH solution. • Precisely 4 minutes after the first addition add 30 ml 0.1% catalase solution. • Adjust the pH to 10.5 with 0.5 M sulphuric acid solution and cool the solution to 0 - 3 °C. • Precisely 6 minutes after the first addition add 15 ml 100% acetic acid solution and 15 ml 10% potassium iodide solution. • Titrate the liberated iodine against a 0.1 M thiosulphate solution. The mol% peracetic acid liberated from the bleach activator can be calculated from the quantity of thiosulphate solution required, 2 mmol thiosulphate corresponding to 1 mmol peracetic acid formed. The determinations were corrected for the loss of peracetic acid during the measurement. The correction factor for this loss is 1.10.

- Solubility (%) [1]: 0.1%
Compound: CC(=O)N(CCN(C(C)=O)C(C)=O)C(C)=O [TAED, tetraacetylethylenediamine]
- Peracetate formed (mol%) ([2]; 100 x number of mols of peracetate formed / total number of mols of acetyl groups in product): 45 mol%
- mol peracetate/ kg product [2]: 7.9 mol peracetate/ kg product
